Measured values published in ChEMBL document CHEMBL1145365, “The discovery of long acting beta2-adrenoreceptor agonists” (Bioorg Med Chem Lett, 2007).

Experiments:
[1] = Distribution coefficient, log D of the compound; details: octanol/water
[2] = molecular target: Beta-2 adrenergic receptor (Homo sapiens, UniProt P07550)
Description: Agonist activity at human recombinant beta-2 adrenoceptor expressed in CHO cells assessed as elevation of cAMP

[3] = molecular target: Beta-2 adrenergic receptor (Cavia porcellus) (UniProt Q8K4Z4); experiment: Agonist potency at beta-2 adrenoceptor in guinea pig trachea model relative to salmeterol; type: functional, tissue-based
Beta-2 adrenergic receptor (Cavia porcellus), sequence (Q8K4Z4 whole entry, looked up): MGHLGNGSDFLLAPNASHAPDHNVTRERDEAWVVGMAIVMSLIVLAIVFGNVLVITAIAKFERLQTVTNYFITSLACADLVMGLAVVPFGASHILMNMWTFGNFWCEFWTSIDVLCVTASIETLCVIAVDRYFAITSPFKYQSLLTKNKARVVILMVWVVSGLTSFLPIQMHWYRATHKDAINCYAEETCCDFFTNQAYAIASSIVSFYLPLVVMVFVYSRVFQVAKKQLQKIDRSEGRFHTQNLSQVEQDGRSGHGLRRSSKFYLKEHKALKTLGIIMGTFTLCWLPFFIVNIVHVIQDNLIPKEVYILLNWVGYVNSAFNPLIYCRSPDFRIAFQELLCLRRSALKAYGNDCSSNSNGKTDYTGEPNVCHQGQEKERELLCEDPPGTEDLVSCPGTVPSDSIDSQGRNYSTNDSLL

[4] = molecular target: Beta-2 adrenergic receptor (Cavia porcellus) (UniProt Q8K4Z4); experiment: Effect on guinea pig trachea model assessed as duration of muscle tone; type: functional, tissue-based; details: Muscle tissue
[5] = Volume of distribution in iv dosed rat; type: ADME, organism-based; details: in vivo, read-out: Vdss
[6] = Half life in human liver microsome at 1 uM
[7] = in vitro; details: human, Caco-2, pH 7.4
Description: Permeability from apical to basolateral side of the Caco-2 cell membrane at 25 uM in pH 7.4

[8] = Clearance in iv dosed rat; type: ADME, organism-based; details: in vivo
[9] = Half life in iv dosed rat; type: ADME, organism-based; details: in vivo

Beta-2 adrenergic receptor, sequence (P07550 whole entry): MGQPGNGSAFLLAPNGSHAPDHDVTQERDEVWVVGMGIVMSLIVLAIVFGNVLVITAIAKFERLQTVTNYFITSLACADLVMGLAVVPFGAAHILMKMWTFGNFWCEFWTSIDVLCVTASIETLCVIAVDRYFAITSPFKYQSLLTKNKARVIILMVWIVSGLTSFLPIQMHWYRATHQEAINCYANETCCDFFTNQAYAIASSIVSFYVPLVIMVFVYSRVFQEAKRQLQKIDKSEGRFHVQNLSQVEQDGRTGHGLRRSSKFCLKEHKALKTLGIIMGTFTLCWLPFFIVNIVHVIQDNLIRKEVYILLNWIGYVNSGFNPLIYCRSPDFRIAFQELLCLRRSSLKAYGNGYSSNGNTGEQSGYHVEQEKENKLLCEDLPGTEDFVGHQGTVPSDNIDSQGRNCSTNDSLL

Structure (SMILES)	logD [1]	Activity [3]	TIME [4]	half-life at 1 µM ([6]; liver microsomes)	also measured
C[C@H](Cc1cccc(CC(=O)NCc2ccccc2)c1)NC[C@H](O)c1ccc(O)c(CO)c1	0.8				EC50 [2]: 0.096 nM
COc1cccc(OC)c1CNC(=O)Cc1cccc(C[C@@H](C)NC[C@H](O)c2ccc(O)c(CO)c2)c1	0.8	0.3	1.5 h		
OCc1cc([C@@H](O)CNCCCCCCOCCCCc2ccccc2)ccc1O [SALMETEROL]	2.5	1			Vd [5]: 16.6 L/kg
Cc1ccc(CNC(=O)Cc2cccc(C[C@@H](C)NC[C@H](O)c3ccc(O)c(CO)c3)c2)cc1C	2.2	0.5	4.6 h	10 min	
C[C@H](Cc1cccc(CC(=O)NCc2cc(Cl)cc(Cl)c2)c1)NC[C@H](O)c1ccc(O)c(CO)c1	2.3	0.5	7.2 h		Papp A→B at 25 µM [7]: 1 ×10⁻⁶ cm/s
C[C@H](Cc1cccc(CC(=O)NCc2cc(C(F)(F)F)ccc2F)c1)NC[C@H](O)c1ccc(O)c(CO)c1		0.9	6.6 h		half-life at 1 µM ([6]; microsomes): 9 min
O=C(Cc1cccc(CCNC[C@H](O)c2ccc(O)c(CO)c2)c1)NCc1ccccc1	0.4				EC50 [2]: 0.096 nM
CC(C)(Cc1cccc(CC(=O)NCc2ccccc2)c1)NC[C@H](O)c1ccc(O)c(CO)c1	1				EC50 [2]: 0.02 nM
C[C@H](Cc1cccc(CC(=O)NCc2ccc(OC(F)(F)F)cc2)c1)NC[C@H](O)c1ccc(O)c(CO)c1	2.4	1	8.1 h	15 min	
C[C@H](Cc1cccc(CC(=O)NC2Cc3ccccc3C2)c1)NC[C@H](O)c1ccc(O)c(CO)c1	1.6	0.1	5.4 h		Papp A→B at 25 µM [7]: 1 ×10⁻⁶ cm/s
C[C@H](Cc1cccc(CC(=O)NCc2ccc(Cl)c(Cl)c2)c1)NC[C@H](O)c1ccc(O)c(CO)c1	2.6	0.4	9 h	4 min	clearance [8]: 123 mL/min/kg; half-life [9]: 90 min; Vd [5]: 16.6 L/kg; Papp A→B at 25 µM [7]: 1 ×10⁻⁶ cm/s
C[C@H](Cc1cccc(CC(=O)NCc2cccc3ccccc23)c1)NC[C@H](O)c1ccc(O)c(CO)c1	1.5	1	3.9 h	2 min	
C[C@H](Cc1cccc(CC(=O)NCc2c(F)cccc2Cl)c1)NC[C@H](O)c1ccc(O)c(CO)c1		0.07	5.2 h		
